Test results as given in patent US12358960B2, “Selective targeting of ubiquitin- and ubiquitin-like E1-activating enzymes by structurally-stabilized peptides” (Dana-Farber Cancer Institute, Inc., priority 2019, dated 2025).
“Also recorded” adds a separate entry of the source. Bridge positions count the residues as written; N and C are the ends. Square brackets hold non-standard residues; d marks the D form. Peptide text beside a SMILES is read from it. R8 = C=CCCCCCC[C@@](C)(N)C(=O)O; S5 = C=CCCC[C@](C)(N)C(=O)O; Nle = CCCC[C@H](N)C(=O)O

Target: T1, Human E1 activating enzyme UBA1 (Homo sapiens, UniProt P22314)
T1 sequence (P22314 1-1058): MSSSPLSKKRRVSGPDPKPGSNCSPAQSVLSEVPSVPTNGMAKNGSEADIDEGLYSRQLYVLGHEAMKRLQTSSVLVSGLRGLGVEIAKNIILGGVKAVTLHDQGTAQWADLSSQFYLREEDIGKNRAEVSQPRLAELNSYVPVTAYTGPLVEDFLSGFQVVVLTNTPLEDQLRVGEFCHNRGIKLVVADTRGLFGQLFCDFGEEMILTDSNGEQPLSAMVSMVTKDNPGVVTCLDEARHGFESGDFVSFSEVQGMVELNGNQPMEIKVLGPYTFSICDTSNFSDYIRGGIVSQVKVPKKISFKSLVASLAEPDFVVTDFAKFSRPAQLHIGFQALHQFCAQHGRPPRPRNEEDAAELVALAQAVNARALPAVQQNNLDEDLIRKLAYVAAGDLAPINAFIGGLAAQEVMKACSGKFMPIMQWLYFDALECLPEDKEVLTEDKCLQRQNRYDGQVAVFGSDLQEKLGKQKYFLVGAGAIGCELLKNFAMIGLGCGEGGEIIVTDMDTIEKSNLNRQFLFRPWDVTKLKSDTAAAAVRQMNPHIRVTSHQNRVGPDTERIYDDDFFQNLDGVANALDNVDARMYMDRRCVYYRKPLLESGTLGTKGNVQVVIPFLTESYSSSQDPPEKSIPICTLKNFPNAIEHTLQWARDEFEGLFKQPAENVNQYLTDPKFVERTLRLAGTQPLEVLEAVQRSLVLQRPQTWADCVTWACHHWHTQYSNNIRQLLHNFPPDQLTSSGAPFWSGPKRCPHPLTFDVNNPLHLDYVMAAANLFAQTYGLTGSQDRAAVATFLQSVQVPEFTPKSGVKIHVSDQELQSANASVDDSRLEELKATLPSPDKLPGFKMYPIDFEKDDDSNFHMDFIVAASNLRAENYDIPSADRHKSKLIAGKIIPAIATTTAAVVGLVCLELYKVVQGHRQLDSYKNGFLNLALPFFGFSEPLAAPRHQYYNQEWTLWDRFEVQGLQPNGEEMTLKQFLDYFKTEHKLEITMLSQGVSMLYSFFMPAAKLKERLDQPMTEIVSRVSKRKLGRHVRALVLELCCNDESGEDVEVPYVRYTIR
Experiment: In vitro enzyme inhibition assay: E1-mediated ubiquitin thioester transfer to E2 (band shift, silver stain)
Format: biochemical
Details: for effect of nonionic detergent on inhibitory activity against UBA1: 0.01% Triton X-100 in assay buffer
Protocol: In vitro Enzyme Inhibition Assays: To assess an E2 hA peptide's inhibition of an E1 enzyme, an in vitro enzyme inhibition assay can be used, for example. The in vitro enzyme inhibition assay measures an E2 hA peptide's ability to inhibit conjugation of ubiquitin to E2 by E1. Briefly, recombinant E1 (e.g., UBA1), recombinant E2 (e.g., UBE2A), ubiquitin, and Mg-ATP are combined in the presence of an E2 hA peptide or vehicle control (e.g., 1% DMSO) for a period of time (e.g., 30 minutes) at room temperature in a buffer containing, e.g., 50 mM NaCl, 50 mM HEPES pH 7.5. Control reaction includes no E1. Reactions are quenched by addition of SDS-containing loading dye and samples are resolved on a gel (e.g., a 4-12% Bis-Tris protein gel) under nonreducing conditions. Proteins on the gel are visualized via, e.g., silver stain. Conjugation of ubiquitin to E2 by E1 is monitored by conversion of free E2 (˜17 kDa) to E2˜ubiquitin conjugate (˜26 kDa).
Control reaction included no E1 enzyme. Reactions were quenched by addition of SDS-containing loading dye and samples were resolved on a 4-12% Bis-Tris protein gel under nonreducing conditions. Proteins were visualized via silver stain. Conjugation of ubiquitin to E2 by E1 was monitored by conversion of free E2 (17 kDa) to E2˜ubiquitin conjugate (26 kDa).
The ability of the peptides to inhibit E1-mediated thioester transfer to E2 was evaluated. Human E1 activating enzyme UBA1 (10 nM), UbcH5b E2 enzyme (150 nM), ubiquitin (1 μM), and Mg-ATP (20 μM) were combined in the presence of stapled peptide at a range of concentrations or vehicle control (1% DMSO) for 45 minutes at room temperature in buffer containing 50 mM NaCl, 50 mM HEPES, 1 mM TCEP pH 7.5. Reactions were quenched by addition of SDS-containing loading dye and samples were resolved on a 4-12% Bis-Tris protein gel under nonreducing conditions. Proteins were visualized via silver stain. Conjugation of ubiquitin to E2 by E1 was monitored by conversion of free E2 (17 kDa) to E2˜ubiquitin conjugate (26 kDa). Inhibition percentage was calculated from densitometry of silver stain images.
Streptavidin-biotin pull-down assays: For recombinant protein pull-downs, 10 pmol recombinant human UBA1 was incubated with 5 nmol C-terminally biotinylated SAH-UBE2A or DMSO vehicle control in a total volume of 1 mL binding buffer (50 mM NaCl, 20 mM HEPES, pH 7.4, 5 mM DTT) for 1.5 hours at 4° C. 30 μL of pre-equilibrated streptavidin agarose beads were then added and incubated for an additional 1.5 hours at 4° C. The beads were pelleted by centrifugation and washed three times with NP-40 buffer (20 mM HEPES, pH 7.4, 50 mM NaCl, 5 mM DTT, 0.5% [v/v] NP-40) before eluting the protein sample from the beads by heating at 70° C. for 10 min in 3×SDS loading buffer. Samples were subjected to electrophoresis and silver staining (Pierce 24612). For pull-down from cellular lysates, 0.75 mg HeLa cell lysate was incubated with 5 nmol C-terminally biotinylated SAH-UBE2A or DMSO vehicle control in a total volume of 1 mL binding buffer (50 mM NaCl, 20 mM HEPES, pH 7.4, 5 mM DTT) containing protease-phosphatase inhibitor cocktail for 2 hours at 4° C. 30 μL of pre-equilibrated streptavidin agarose beads (ThermoFisher 20357) were then added and incubated for an additional 1.5 hours at 4° C. The beads were pelleted by centrifugation and washed three times with NP-40 buffer (20 mM HEPES, pH 7.4, 50 mM NaCl, 5 mM DTT, 0.5% [v/v] NP-40) before eluting the protein sample from the beads by heating at 70° C. for 10 min in 3×SDS loading buffer. Proteins were separated by SDS-PAGE gel electrophoresis and detected by western blot against UBE1 (Abcam ab34711). In vitro Enzyme Inhibition Assays: Recombinant human E1 activating enzyme UBA1 (10 nM), E2 enzyme (150 nM), ubiquitin (1 μM), and Mg-ATP (20 μM) are combined in the presence of peptide or vehicle control (1% DMSO) for 45 minutes at room temperature in buffer containing 50 mM NaCl, 50 mM HEPES pH 7.5. Control reaction includes no E1 enzyme. […]

## CCCC[C@H](NC(C)=O)C(=O)N[C@@H](CO)C(=O)N[C@H](C(=O)N1CCC[C@H]1C(=O)N[C@]1(C)CCCCCCC=CCCC[C@@](C)(C(=O)N[C@@H](Cc2ccccc2)C(=O)N[C@@H](CCCCN)C(=O)N[C@@H](CCCNC(=N)N)C(=O)N[C@@H](CC(C)C)C(=O)N[C@@H](CCC(N)=O)C(N)=O)NC(=O)[C@H](CCCNC(=N)N)NC(=O)[C@H](CCCC)NC(=O)[C@H](CC(C)C)NC(=O)[C@H](CCCNC(=N)N)NC(=O)[C@H](CCCNC(=N)N)NC(=O)[C@H](CCCNC(=N)N)NC1=O)[C@@H](C)O [SAH-UBE2A-11, BSTPX1RRRLBRX2FKRLQ] (Ac-[Nle]STP[R8]RRRL[Nle]R[S5]FKRLQ-NH2; staple 5-12)
  effect of nonionic detergent on inhibitory activity against UBA1: not affected at all by the presence of non-ionic detergent
Listed as SAH-UBE2A
  effect of nonionic detergent on inhibitory activity against UBA1: no effect on the inhibitory activity of SAH-UBE2A
Panel of human E2 enzymes (UBE2A, UBE2B, UBE2C, UBE2D1-4 etc.)
  inhibition of E1-mediated thioester transfer to a variety of human E2 enzymes: inhibited E1-mediated thioester transfer to all human E2 enzymes tested; also recorded: inhibits E1 thioester transfer activity
Range of peptide concentrations, UbcH5b E2 enzyme, 45 minutes
  inhibition of E1-mediated thioester transfer to E2, dose response: inhibited E1-mediated thioester transfer to E2 in a dose-dependent manner; also recorded: most potent activity; also recorded: dose-dependently inhibit E1-mediated thioester transfer to E2
